# Measurements: patent publication US5464821A, “Small peptidic compounds useful for the treatment of glaucoma” (Carlbiotech, Ltd., priority 1991, dated 1995)
# Residues, ends and D or L forms follow the SMILES beside them. *: point of attachment. OBn = c1ccc(CO*)cc1; Acm = CC(=O)NC*
# Tests used:
# [1] = test system: stress induced intraocular pressure in the rabbit's eye; assay: stress induced antagonizing model, intraocular pressure in the rabbit's eye; format: in vivo; design: key to Antagonizing Effect: Active: the pressure increase following 10 stress units for the treated group on average was found to be smaller than 2 mm Hg and to be significantly less compared to untreated controls; conditions: for Antagonizing Effect: 1% solution in 0.9% aqueous NaCl, 60 μl topically 3 times daily over 5 days, following 10 stress units
# Experimental: The main feature of this clinical model is a stress induced elevation of the IOP in the rabbit eye above the initial and normal value. The stress is exerted, i.e. applied, in the form of measuring the pressure (at 12 hour intervals) with the help of a SHIOTZ-Tonometer, which is loaded with 7.5 grams. The pressure first begins to rise after 5 measurements, i.e. after 21/2 days, and reaches a maximum after 10 measurements, i.e. after 5 days.
# Known antiglaucoma drugs lower the intraocular pressure when they are applied after the intraocular pressure (IOP) has clearly been established,in spite of the fact that the trauma, i.e. the measuring of the pressure, continued during the treatment.
# Antagonizing of the Intraocular Pressure in the stressed Rabbit's Eyes Model
# The compound was a freeze-dried powder, and was applied to the rabbit eye as a powder, or as drops, dissolved in 0.9% NaCl aqueous solution. Negative control was 0.9% NaCl solution in water.
# (§1) Peptides were tested for the intraocular pressure lowering or antagonizing effects in the water load model described above or the stress induced antagonizing model respectively, in groups of four to ten rabbits, as described below. The tests were performed on homogeneous groups of randomly sexed rabbits, weight 2.5-3.0 kg, but of different breeds in various laboratories several places in the world. Thus, in some cases intergroup variations were found in the absolute starting pressure of the rabbit's eyes.
# (§2) In the case of the water load model structure, each rabbit served as its own reference control for the duration of the experiment, and in the case of the stress induced antagonistic model, each group of rabbits served as reference control, at the beginning and end of 10 stress units. Usually, the peptides were dissolved in plain isotonic saline, but in one case in the waterload model, a TRIS-buffer at physiological pH was included.
# The peptides were applied topically as a 1% solution in 0.9% aqueous NaCl in aliquots of 60 μl 3 times daily over a period of 5 days.
# [2] = test system: water load induced hypertension in the rabbit's eye; assay: water load model, intraocular pressure in the rabbit's eye; format: in vivo
# Experimental: The findings of IOP lowering effects in the stress induced rabbit model have been confirmed and further studied by using another elevated eye pressure rabbit model. In this model, the widely applied water load model, elevation of the intraocular pressure is achieved by injecting a large volume of sterile water intraperitoneally into the rabbits. Following onset of eye drop treatment in one eye while the other eye is treated with saline placebo, the intraocular pressure of both eyes is then measured at various intervals and the .pressure difference between the eyes is taken as an expresion of the pharmaceutical effect.
# The studies utilized a "water load" animal model.
# Thirty minutes before drug solution instillation, rabbits were injected intraperitonally with 60 ml/kg of sterile distilled water for injection (30° C.) spiked with an antibiotic mixture (Sigma P9032).
# At time zero, 50 μl of a drug solution was instilled to one eye and an equal volume of a saline solution was instilled to the other eye. The IOP in each eye was monitored at the time points indicated. The change in IOP at each time point is computed by subtracting the IOP in the dosed eye from that in the undosed-eye.
# From these plots were assessed the maximal IOP effect, the time to reach this and the time for returning to a zero or insignificant level of IOP lowering effect. These figures were taken as a measure of potency and duration of effect.
# as §1, §2
# 50 μl of a 1% solution of the peptides in 0.9% aqueous saline were applied in one eye and 50 μl of 0.9% aqueous saline in the other eye 30 minutes after the intraperitonal water loading and IOP were measured in both eyes for 2 hours and the difference calculated.
# 50 μl of 1% solution of the peptides in 0.9% isotonic saline containing TRIS-buffer pH 7.4 was applied in one eye and 50 μl of 0.9% isotonic saline containing TRIS-buffer. pH 7.4 in the other eye 30 minutes after the interperitonal water loading and intraocular pressure was measured in both eyes for 2 hours and the difference calculated.
# [3] = from PCT/DK90/00322; cited from earlier work
# [4] = test system: stress induced intraocular pressure in the rabbit's eye; conditions: earlier work in the laboratory of one of the inventors; cited from earlier work
# [5] = single dose 50 μl of 1% solution in 0.9% aqueous saline in one eye, saline in the other, IOP measured for 2 hours
structure (smiles),measurement,setting,value
"CC(C)[C@H](NC(=O)CN)C(=O)OCc1ccccc1 [H-Gly-Val-OBzl, Glycyl-L-Valine-Benzylester] (H-Gly-Val-OBn)",Antagonizing Effect,[1],Active
same,antagonizing effect / efficacy in the stress induced rabbit model (in words),[1]; stress induced model,good efficacy
same,Pressure Lowering Effect,[2]; [5],Active
"CC[C@@H]1C(=O)OC[C@@H]1Cc1cncn1C [pilocarpine, reference compound]",pressure lowering effect in the water load model (in words),"[2]; 2.6% solution, positive reference control",gave a similar response to some of the preferred compounds
CC(=O)NCC(=O)NCC(=O)N[C@H](C(N)=O)C(C)C [Ac-Gly-Gly-Val-NH2] (Ac-Gly-Gly-Val-NH2),Antagonizing Effect,[1],Active
same,Pressure Lowering Effect,[2]; [5],Active
CC(C)C[C@H](NC(=O)[C@@H](N)CC(N)=O)C(=O)NCC(=O)N[C@H](C(N)=O)C(C)C [H-Asn-Leu-Gly-Val-NH2] (H-NLGV-NH2),Antagonizing Effect,[1],Active
"CC(=O)NCSC[C@H](NC(=O)[C@@H](NC(=O)CNC(=O)[C@H](CC(C)C)NC(=O)[C@@H](N)CC(N)=O)C(C)C)C(N)=O [HAsnLeuGlyValCys(Acm)NH2, H-Asn-Leu-Gly-Val-Cys(Acm)-NH2] (H-NLGVC(Acm)-NH2)",penetration of the sclera of the eye,[3],penetrate the sclera of the eye
CC(C)[C@H](NC(=O)CN)C(=O)N[C@@H](Cc1ccc(O)cc1)C(N)=O [H-Gly-Val-Tyr-NH2] (H-Gly-Val-Tyr-NH2),Antagonizing Effect,[1],Active
same,Pressure Lowering Effect,[2]; [5],Active
CCOC(=O)[C@@H](NC(=O)CNC(=O)CN)C(C)C [H-Gly-Gly-Val-OEt] (H-Gly-Gly-Val-OEt),Antagonizing Effect,[1],Active
"CC(C)[C@H](NC(=O)CCN)C(=O)OCc1ccccc1 [H-β-Ala-Val-OBzl, β-alanyl L-valine Benzylester]",Pressure Lowering Effect,"[2]; single dose 50 μl of 1% solution in 0.9% isotonic saline containing TRIS-buffer pH 7.4, IOP measured for 2 hours",Active
CC(C)[C@H](NC(=O)CNC(=O)CNC(=O)[C@@H](N)CC(N)=O)C(N)=O [H-Asn-Gly-Gly-Val-NH2] (H-NGGV-NH2),Antagonizing Effect,[1],Active
CC(C)C[C@H](NC(=O)[C@@H](N)CC(N)=O)C(=O)NCC(=O)N[C@@H](Cc1ccc(O)cc1)C(N)=O [H-Asn-Leu-Gly-Tyr-NH2] (H-NLGY-NH2),Antagonizing Effect,[1],Active
CC(C)(C)NC[C@H](O)COc1nsnc1N1CCOCC1 [timolol],pressure lowering effect of known drugs in the stress model,[4],pressure lowering effect
